Values of other authors as cited in patent US9226906B2, “Method and nutritional supplement for enhancing weight gain of a mammal” (Supragenix, LLC, priority 2013, dated 2016).

Target: CB1 (Homo sapiens, UniProt P21554)
Sequence (P21554 whole entry, species assumed): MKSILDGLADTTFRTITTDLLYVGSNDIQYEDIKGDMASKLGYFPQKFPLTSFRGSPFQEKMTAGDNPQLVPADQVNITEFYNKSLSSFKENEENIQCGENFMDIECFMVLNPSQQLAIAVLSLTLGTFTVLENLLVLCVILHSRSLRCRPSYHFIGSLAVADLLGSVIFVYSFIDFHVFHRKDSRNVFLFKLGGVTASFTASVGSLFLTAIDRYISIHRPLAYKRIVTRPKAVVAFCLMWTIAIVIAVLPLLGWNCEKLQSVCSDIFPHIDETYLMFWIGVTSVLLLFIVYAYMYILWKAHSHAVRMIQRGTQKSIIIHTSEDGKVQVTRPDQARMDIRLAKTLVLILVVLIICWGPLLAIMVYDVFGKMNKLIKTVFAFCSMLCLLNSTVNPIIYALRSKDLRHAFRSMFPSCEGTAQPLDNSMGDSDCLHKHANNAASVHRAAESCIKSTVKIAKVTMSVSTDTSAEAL

Compound | activating CB1
C#CC#CCC/C=C/C=C\C(=O)NCC(C)C [Undeca-2Z,4E-diene-8,10-diynoic acid isobutylamide] | effective in activating CB1
CCC/C=C\CC/C=C/C=C/C(=O)NCC(C)C [Dodeca-2E,4E,8Z-trienoic acid isobutylamide] | effective in activating CB1
CC#CC#CCCCC/C=C/C(=O)NCC(C)CC (centres unmarked) [Dodeca-2E-ene-8,10-diynoic acid 2-methylbutylamide] | effective in activating CB1
C#CC#CC/C=C\CCCCC/C=C/C(=O)NCC(C)C [Pentadeca-2E,9Z-diene-12,14-diynoic acid isobutylamide] | effective in activating CB1
C#CC#CCCCCC=CC(=O)NCC(C)C [Undeca-2-ene-8,10-diynoic acid isobutylamide] | effective in activating CB1
CC#CC#CCC/C=C\C=C\C(=O)NCC(C)C [Dodeca-2E,4Z-diene-8,10-diynoic acid isobutylamide] | effective in activating CB1
Dodeca-2E,4E,8Z,10E/Z-tetraenoic acid isobutylamides | effective in activating CB1
CCCCCCC/C=C/C=C/C(=O)NCC(C)C [Dodeca-2E,4E-dienoic acid isobutylamide] | effective in activating CB1
